In patent publication US10543249B2, “Pharmaceutical composition for a sustained release of lanreotide” (IPSEN PHARMA S.A.S., priority 2013, dated 2020):

Assay: Solubility of lanreotide acetate
Assay type: physicochemical
From the text: The term “co-solvent” as used in the present application refers to a solvent or a mixture of solvents which allows the incorporation of the active ingredient in the composition to obtain the required dose in a suitable volume and matching the injectability criteria.
A composition according to the present invention comprises a co-solvent which allows obtaining the required injectability criteria of the pharmaceutical compositions. The co-solvent used in the composition according to the present invention is hydrosoluble. Moreover, the solubility, in the hydrosoluble co-solvent, of lanreotide or its salts used according to the present invention is equal or higher than 8% (w/v) at room temperature. For comparison, the solubility of lanreotide acetate is less than 4% in water, aqueous acetic acid (at the concentration of 0.1 or 1 mol/mL), aqueous NaCl (0.9%), or polysorbate (0.01%).

Measured: solubility of lanreotide acetate

CC(C)[C@@H]1NC(=O)[C@H](CCCCN)NC(=O)[C@@H](Cc2c[nH]c3ccccc23)NC(=O)[C@H](Cc2ccc(O)cc2)NC(=O)[C@@H](NC(=O)[C@H](N)Cc2ccc3ccccc3c2)CSSC[C@@H](C(=O)N[C@H](C(N)=O)[C@@H](C)O)NC1=O [lanreotide acetate]
less than 4%: in aqueous NaCl (0.9%) | in aqueous acetic acid (at the concentration of 0.1 or 1 mol/mL) | in polysorbate (0.01%) | in water
